Assay results reported in patent US9931347B2, “Pharmaceutical compound” (IOmet Pharma Ltd., priority 2013, dated 2018).

Legend:
[1] = target: T1, TDO (A172 human glioblastoma cells) (Homo sapiens, UniProt P48775); experiment: A172 Kynurenine cell based assay; settings: 500 μM L-tryptophan, 48 hours, kynurenine by Erhlich's reagent
T1 construct: This assay utilised cancer cells which expressed either TDO or IDO; endogenous in cells; host or cells: A172 human glioblastoma cells
Summary of the method: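 Kynurenine released into the supernatant was quantified by absorbance at 490 nm after 5 min with Erhlich's reagent. A172 cells were seeded at 30,000/well and exposed to test compound for 48 hours at 37° C. in phenol red-free RPMI containing 500 μM L-tryptophan, 10% FCS and 2 mM L-glutamine.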

[2] = target: T2, IDO (SKOV3 human ovarian adenocarcinoma cells, IFN-γ induced) (Homo sapiens, UniProt P14902); experiment: SKOV3 Kynurenine cell based assay; settings: IDO induced by 500 ng/ml IFN-γ, 500 μM L-tryptophan, 48 hours
T2 construct: IDO expression was induced in the SKOV3 cells by the addition of 500 ng/ml IFN-γ; endogenous in cells; host or cells: SKOV3 human ovarian adenocarcinoma cells, induced with IFN-γ
T2 sequence (P14902 whole entry): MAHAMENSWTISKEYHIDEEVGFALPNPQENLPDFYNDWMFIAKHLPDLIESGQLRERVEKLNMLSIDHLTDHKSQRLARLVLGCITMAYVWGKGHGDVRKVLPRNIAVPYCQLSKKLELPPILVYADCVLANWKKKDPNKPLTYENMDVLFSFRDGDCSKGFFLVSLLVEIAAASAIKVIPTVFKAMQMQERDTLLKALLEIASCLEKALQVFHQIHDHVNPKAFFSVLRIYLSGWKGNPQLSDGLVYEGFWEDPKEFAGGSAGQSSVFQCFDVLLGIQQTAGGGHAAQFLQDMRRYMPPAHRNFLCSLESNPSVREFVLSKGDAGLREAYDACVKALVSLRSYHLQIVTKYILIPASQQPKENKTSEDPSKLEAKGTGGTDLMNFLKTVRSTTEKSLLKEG
Summary of the method: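 Kynurenine in the supernatant, detected by Ehrlich's reagent, served as read-out after 48 h at 37° C with or without test compound. SKOV3 cells (40,000/well) were grown in phenol red-free RPMI, 10% FCS, 2 mM L-glutamine, 500 μM L-tryptophan, with 500 ng/ml IFN-γ to induce IDO.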

Recombinant human IDO = Recombinant human IDO (Homo sapiens, UniProt P14902); experiment: hIDO biochemical coupled assay; settings: 45 μM L-tryptophan, coupled with kynurenine formamidase
Chain of Recombinant human IDO (P14902 whole entry): as above
Description: (§1) Exemplary compounds of the invention were prepared, and tested to determine their effect as TDO and/or IDO inhibitors. Two different assays were employed: 1. a cell-based assay for detecting the effect of test compounds on kynurenine production in two different cancer cell types. This assay utilised cancer cells which expressed either TDO or IDO and as such was used as a means of testing compound activity at these two enzymes in a cell-based context. 2. a TDO and IDO biochemical coupled assay which utilised recombinantly produced and purified TDO and IDO enzymes in combination with the enzyme formamidase. This coupled enzyme system allowed conversion of N-formylkynurenine produced by TDO or IDO activity to kynurenine which was then quantified by fluorescence following addition of Erhlich's Reagent The protocols for these are set out below.
Recombinant human IDO or TDO was incubated in 50 mM KPO4 (pH 7.0), 0.5 mM EGTA, 0.5 mM EDTA, 0.05% Triton™ X100, 20 mM ascorbate, 10 μM methylene blue, 500 U/ml catalase, 50 μg/ml KynB (kynurenine formamidase).

Recombinant human TDO = Recombinant human TDO (Homo sapiens, UniProt P48775); experiment: hTDO biochemical coupled assay; settings: 330 μM L-tryptophan, coupled with kynurenine formamidase
Chain of Recombinant human TDO (P48775 whole entry): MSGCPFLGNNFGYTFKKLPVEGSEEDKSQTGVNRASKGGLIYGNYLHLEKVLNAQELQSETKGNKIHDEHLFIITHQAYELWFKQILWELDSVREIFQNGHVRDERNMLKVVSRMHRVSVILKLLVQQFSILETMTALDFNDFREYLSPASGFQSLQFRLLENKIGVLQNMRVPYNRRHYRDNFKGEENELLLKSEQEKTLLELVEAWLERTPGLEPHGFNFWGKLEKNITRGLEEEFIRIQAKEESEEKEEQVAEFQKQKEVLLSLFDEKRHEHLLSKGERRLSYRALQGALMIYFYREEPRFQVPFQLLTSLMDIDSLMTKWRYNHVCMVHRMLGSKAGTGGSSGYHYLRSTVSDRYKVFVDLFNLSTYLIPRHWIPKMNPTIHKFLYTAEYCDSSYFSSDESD
Description: as §1
Recombinant human IDO or TDO was incubated in 50 mM KPO4 (pH 7.0), 0.5 mM EGTA, 0.5 mM EDTA, 0.05% Triton™ X100, 20 mM ascorbate, 10 μM methylene blue, 500 U/ml catalase, 50 μg/ml KynB (kynurenine formamidase). TDO assays were carried out in the presence of 330 μM L-tryptophan, while IDO assays had the addition of 45 μM L-tryptophan. After incubation for 17 minutes at room temperature the reactions were stopped by the addition of Erhlich's reagent and incubated at room temperature for 5 minutes before the fluorescence was read (Ex475, Em530).

T1 sequence (P48775 whole entry): as above

Row | A172 Kynurenine cell based assay pIC50 [1] | SKOV3 Kynurenine cell based assay pIC50 [2] | hIDO biocehmical assay pIC50 (Recombinant human IDO) | hTDO biochemical assay pIC50 (Recombinant human TDO) | SMILES
1 | ++ (++ = pIC50 5.00-5.99) | + (+ = pIC50 4.00-4.99) | +− (+− = pIC50 <4.00) | +− (+− = pIC50 <4.00) | CC(=O)N1CCC(c2c[nH]c3ccccc23)CC1 [Compound 1]
2 | ++ (++ = pIC50 5.00-5.99) | +− (+− = pIC50 <4.00) | +− (+− = pIC50 <4.00) | ++ (++ = pIC50 5.00-5.99) | CS(=O)(=O)N1CCC(c2c[nH]c3ccccc23)CC1 [Compound 3]
3 | + (+ = pIC50 4.00-4.99) | +− (+− = pIC50 <4.00) | +− (+− = pIC50 <4.00) | + (+ = pIC50 4.00-4.99) | Cn1cnc(S(=O)(=O)N2CCC(c3c[nH]c4ccccc34)CC2)c1 [Compound 4]
4 | ++ (++ = pIC50 5.00-5.99) | +− (+− = pIC50 <4.00) | +− (+− = pIC50 <4.00) | – | CC1CN(c2c[nH]c3ccccc23)CCN1S(C)(=O)=O (stereo not shown) [Compound 186]
5 | + (+ = pIC50 4.00-4.99) | +− (+− = pIC50 <4.00) | +− (+− = pIC50 <4.00) | – | CN1CCN(c2c[nH]c3ccccc23)CC1=O [Compound 189]
6 | – | – | – | + (+ = pIC50 4.00-4.99) | COc1cccc2[nH]cc(C3=CCN(S(C)(=O)=O)CC3)c12 [Compound 197]
7 | – | – | – | + (+ = pIC50 4.00-4.99) | CC(=O)N1CC=C(c2c[nH]c3cnccc23)CC1 [Compound 198]
8 | – | – | – | + (+ = pIC50 4.00-4.99) | COc1ccc2[nH]cc(C3CCN(C(C)=O)CC3)c2c1 [Compound 199]
9 | – | – | – | + (+ = pIC50 4.00-4.99) | Cn1cc(C2=CCN(S(C)(=O)=O)CC2)c2ccccc21 [Compound 204]
10 | + (+ = pIC50 4.00-4.99) | – | – | + (+ = pIC50 4.00-4.99) | CC(=O)N1CC=C(c2c[nH]c3cc(C)ccc23)CC1 [Compound 205]
11 | ++ (++ = pIC50 5.00-5.99) | – | – | ++ (++ = pIC50 5.00-5.99) | CS(=O)(=O)N1CC=C(c2c[nH]c3ccccc23)CC1 [Compound 209]
12 | ++ (++ = pIC50 5.00-5.99) | – | – | ++ (++ = pIC50 5.00-5.99) | CC(=O)N1CC=C(c2c[nH]c3ccccc23)CC1 [Compound 210]
13 | ++ (++ = pIC50 5.00-5.99) | – | – | + (+ = pIC50 4.00-4.99) | NS(=O)(=O)N1CCC(c2c[nH]c3ccccc23)CC1 [Compound 218]
14 | + (+ = pIC50 4.00-4.99) | ++ (++ = pIC50 5.00-5.99) | + (+ = pIC50 4.00-4.99) | – | Cn1cccc1C(=O)N1CCC(c2c[nH]c3cc(F)ccc23)CC1 [Compound 278]
15 | ++ (++ = pIC50 5.00-5.99) | – | – | + (+ = pIC50 4.00-4.99) | CNS(=O)(=O)N1CCN(c2c[nH]c3ccccc23)CC1 [Compound 295]
16 | ++ (++ = pIC50 5.00-5.99) | – | – | + (+ = pIC50 4.00-4.99) | O=S1(=O)CCC2CN(c3c[nH]c4ccccc34)CCN21 (stereo not shown) [Compound 304]
17 | – | + (+ = pIC50 4.00-4.99) | – | + (+ = pIC50 4.00-4.99) | CC(=O)N1CCCN(c2c[nH]c3ccccc23)CC1 [Compound 308]
18 | ++ (++ = pIC50 5.00-5.99) | – | – | + (+ = pIC50 4.00-4.99) | NS(=O)(=O)N1CCN(c2c[nH]c3ccccc23)CC1 [Compound 311]
19 | ++ (++ = pIC50 5.00-5.99) | – | – | + (+ = pIC50 4.00-4.99) | CNCC1CN(c2c[nH]c3ccccc23)CCN1S(C)(=O)=O (stereo not shown) [Compound 319]

More lines, now with the values behind:

Row | SMILES | A172 Kynurenine cell based assay pIC50 [1] | SKOV3 Kynurenine cell based assay pIC50 [2] | hIDO biocehmical assay pIC50 (Recombinant human IDO) | hTDO biochemical assay pIC50 (Recombinant human TDO)
20 | CCCS(=O)(=O)N1CC=C(c2c[nH]c3cc(F)ccc23)CC1 [Compound 7] | +++ (+++ = pIC50 ≥6.00) | + (+ = pIC50 4.00-4.99) | +− (+− = pIC50 <4.00) | ++ (++ = pIC50 5.00-5.99)
21 | Cc1noc(N2CCC(c3c[nH]c4cc(F)ccc34)CC2)n1 [Compound 183] | ++ (++ = pIC50 5.00-5.99) | + (+ = pIC50 4.00-4.99) | +− (+− = pIC50 <4.00) | –
22 | Cc1nc(N2CCC(c3c[nH]c4cc(F)ccc34)CC2)no1 [Compound 184] | ++ (++ = pIC50 5.00-5.99) | + (+ = pIC50 4.00-4.99) | +− (+− = pIC50 <4.00) | –
23 | CS(=O)(=O)N1CC=C(c2c[nH]c3cc(Cl)c(F)cc23)CC1 [Compound 227] | ++ (++ = pIC50 5.00-5.99) | – | – | + (+ = pIC50 4.00-4.99)
24 | CS(=O)(=O)N1CCC(c2c[nH]c3cc(F)c(F)cc23)CC1 [Compound 236] | ++ (++ = pIC50 5.00-5.99) | + (+ = pIC50 4.00-4.99) | – | + (+ = pIC50 4.00-4.99)
25 | NS(=O)(=O)N1CCC(c2c[nH]c3cc(F)ccc23)CC1 [Compound 249] | ++ (++ = pIC50 5.00-5.99) | – | – | + (+ = pIC50 4.00-4.99)
26 | CN(C)S(=O)(=O)N1CC=C(c2c[nH]c3cc(F)ccc23)CC1 [Compound 251] | +++ (+++ = pIC50 ≥6.00) | + (+ = pIC50 4.00-4.99) | – | + (+ = pIC50 4.00-4.99)
27 | CNS(=O)(=O)N1CC=C(c2c[nH]c3cc(F)ccc23)CC1 [Compound 256] | ++ (++ = pIC50 5.00-5.99) | + (+ = pIC50 4.00-4.99) | – | + (+ = pIC50 4.00-4.99)
28 | CNS(=O)(=O)N1CCC(c2c[nH]c3cc(F)ccc23)CC1 [Compound 257] | ++ (++ = pIC50 5.00-5.99) | + (+ = pIC50 4.00-4.99) | – | + (+ = pIC50 4.00-4.99)
29 | O=C(C(F)F)N1CCC(c2c[nH]c3cc(F)ccc23)CC1 [Compound 260] | ++ (++ = pIC50 5.00-5.99) | – | – | + (+ = pIC50 4.00-4.99)
30 | CCC(=O)N1CCC(c2c[nH]c3cc(F)ccc23)CC1 [Compound 263] | ++ (++ = pIC50 5.00-5.99) | ++ (++ = pIC50 5.00-5.99) | – | + (+ = pIC50 4.00-4.99)
31 | O=C(C1CC1)N1CCC(c2c[nH]c3cc(F)ccc23)CC1 [Compound 265] | ++ (++ = pIC50 5.00-5.99) | + (+ = pIC50 4.00-4.99) | – | + (+ = pIC50 4.00-4.99)
32 | O=C(CO)N1CCC(c2c[nH]c3cc(F)ccc23)CC1 [Compound 269] | ++ (++ = pIC50 5.00-5.99) | + (+ = pIC50 4.00-4.99) | – | + (+ = pIC50 4.00-4.99)
33 | COCCS(=O)(=O)N1CCC(c2c[nH]c3cc(F)ccc23)CC1 [Compound 285] | ++ (++ = pIC50 5.00-5.99) | + (+ = pIC50 4.00-4.99) | – | + (+ = pIC50 4.00-4.99)
34 | Cn1cc(S(=O)(=O)N2CCC(c3c[nH]c4cc(F)ccc34)CC2)cn1 [Compound 286] | ++ (++ = pIC50 5.00-5.99) | – | – | + (+ = pIC50 4.00-4.99)
35 | O=S(=O)(C1CC1)N1CCC(c2c[nH]c3cc(F)ccc23)CC1 [Compound 288] | ++ (++ = pIC50 5.00-5.99) | + (+ = pIC50 4.00-4.99) | – | + (+ = pIC50 4.00-4.99)
36 | CCCS(=O)(=O)N1CCC(c2c[nH]c3cc(F)ccc23)CC1 [Compound 292] | ++ (++ = pIC50 5.00-5.99) | + (+ = pIC50 4.00-4.99) | – | + (+ = pIC50 4.00-4.99)
